The subject of one assay is GAS. Briefly: GAS attachment to murine keratinocyte cell line PAM2.12 with exogenous hyaluronic acid. The class given is cell-based, Streptococcus pyogenes. Here is the method: For bacterial adherence assays, keratinocytes were seeded at 10^5 cells per well in collagen-coated tissue culture wells (Nalge Nunc International, Naperville, Ill.), incubated for 3 days at 34° C. in 8% CO2, washed, and overlaid with medium containing 10^6 CFU of GAS per well. After incubation for 1 hour at 34° C. in 8% CO2 the keratinocyte monolayers were washed twice to remove nonadherent bacteria, then the number of cell-associated bacteria was determined by quantitative culture after releasing the keratinocytes with try spin and lysing them in sterile water, experiments testing the effects of exogenous hyaluronic acid on GAS adherence were performed using the mouse keratinocyte cell line, PAM 2.12 (Song, I. S. 2000, Exp. Dermatol. 9:42-52). Cells were seeded in collagen-coated tissue culture wells at 10^5 cells per well, cultured for 3 days at 37° C. in 5% CO2, then inoculated with 10^6 CFU of GAS per well in medium containing exogenous hyaluronic acid (from rooster comb, Sigma Chemicals, St. Louis, Mo.), no inhibitor, or a control polysaccharide, alginic acid, a high-molecular-weight polymer of mannuronic acid and guluronic acid (Protonal Durvillea Alginate, Pronova. Biopolymer, Inc., Portsmouth, N.H.). Cells were incubated for 45 minutes at 37° C. in 5% CO2, then processed for enumeration of adherent bacteria as described above. In experiments to test whether exogenous hyaluronic acid could promote dissociation of GAS attached to keratinocytes, GAS were allowed to attach to keratinocytes in the absence of inhibitor; after 45 minutes, the medium was removed and replaced with fresh medium containing hyaluronic acid, no inhibitor, or alginic acid. After 45 minutes of incubation, the number of adherent bacteria was enumerated as described above.
To investigate the specificity of the interaction between the GAS capsule and CD44 on epithelial cells, the ability of exogenous hyaluronic acid to compete with GAS for binding to murine keratinocytes was examined. Addition of exogenous hyaluronic acid to concentration 1 mg/ml[…], inhibited GAS attachment to the murine keratinocyte cell line PAM2.12 by >95% (P<0.03, FIG. 5). A concentration of 1 /ml alginic acid, another high molecular weight acidic polysaccharide, had no effect, supporting the hypothesis that adherence depends on a specific interaction between the GAS hyaluronic acid capsule and CD44 .
In addition to the 1 mg/ml concentration of hyaluronic acid, additional trials were performed as indicated above, with a range of concentrations of hyaluronic acid added to the cells. The concentrations tested included 4 mg/ml, 2 mg/ml, 1 mg/ml, 0.75 mg/ml, 0.5 mg/ml, 0.25 mg/ml and 0.1 mg/ml. The hyaluronic acid concentrations from 4 mg/ml to 0.25 mg/ml blocked GAS binding by greater than 70%. Hyaluronic acid concentrations from 4 mg/ml to 0.5 mg/ml blocked GAS binding by greater than 80% (FIG. 6).

In assay [1] the test system is wild-type GAS, strain 950771. Briefly: GAS translocation through polarized human keratinocyte monolayers. The assay is classed as cell-based, Streptococcus pyogenes. The note with it: pre-treated 30 minutes with 2 mg/ml, compared to untreated monolayers. The protocol:
Human keratinocytes were cultured on 3.0 μm filters to allow polarization and establishment of functional intercellular tight junctions. Cells were infected as described previously with wild-type GAS, strain 950771. To assess the ability of exogenously added HA to inhibit the translocation of GAS through the keratinocyte monolayer, cells were pre-treated for 30 minutes with either 2 mg/ml of hyaluronic acid (HA) or another acidic polysaccharide, alginate (AL), at the same concentration. Aliquots of media from the lower chamber of infected keratinocyte monolayers were cultured on blood agar plates at 1 and 2 hours after inoculation with bacteria to assess the number of translocating bacteria. […] In contrast only 20% and 25% of the wild-type bacteria were blocked by AL at 1 and 2 hours, respectively.
GAS strains were 950771, an M-type 3 strain originally isolated from a child with necrotizing fasciitis, and 188, an isogenic acapsular mutant derived from 950771 (Ashbaugh, C. D., et al., (1998) J. Clin. Invest. 102, 550-560). Bacteria were cultured in Todd Hewitt broth (Difco, Sparks, Md.) to early exponential phase. For preparation of polarized keratinocyte monolayers, human squamous cell carcinoma cell line, SCC13, derived from cheek epidermis (Cline, P. R. & Rice, R. H. (1983) Cancer Res. 43, 3203-3207) was cultured to confluence in serum-free keratinocyte medium (Gibco BRL, Rockville, Md.) supplemented with 50 μg/ml bovine pituitary extract, 0.1 ng/ml epidermal growth factor and 0.3 mM calcium chloride (c-SFM). Certain experiments were performed also using cell monolayers prepared from OKP7 primary human keratinocytes (Crowe et al. (1991) Differentiation 48, 199-208). Keratinocytes were seeded at 5×10^5 cells per well onto polycarbonate Transwell membrane supports (12-well plates, 3.0 μm pore size; Costar, Corning, N.Y.) and cultured for 6-10 days at 37° C. with 5% CO2 in c-SFM, with daily medium changes. Once confluent, the integrity of the monolayer was assessed routinely by measuring permeability to sodium fluorescein (Tchao, R. (1988) Alternative Methods in Toxicology (eds. Goldberg, A. M.) 271-283 (Ann Liebert, N.Y.) and, in some experiments, by measuring transepithelial electrical resistance (McNamara, B. P., et al. (2001) J Clin Invest 107, 621-9).
Keratinocyte monolayers on Transwells were inoculated with GAS at a multiplicity of infection of 10 per keratinocyte. Monolayers were incubated at 37° C. with 5% CO2. The keratinocyte medium in the upper chamber was replaced two hours after adding GAS, and the Transwell inserts containing the keratinocytes were moved to new wells containing fresh medium every 2 hours to prevent overgrowth of translocated bacteria. Translocation was assessed by quantitative cultures of medium from the lower chamber at 2 hour intervals.
As a model of the movement of GAS from the pharyngeal mucosa or skin surface into underlying tissue, GAS translocation was studied in vitro through keratinocyte monolayers. Two hours after inoculation onto the surface of a confluent keratinocyte monolayer, wild-type GAS was detected in the culture medium below the membrane support, indicating migration of the organisms through the monolayer. At each of several intervals after inoculation, approximately 20 to 100 times as many GAS were recovered below monolayers inoculated with wild-type GAS compared to those inoculated with the acapsular mutant strain.(Figure 12a). […] Compared to wild-type GAS strain 950771, the efficiency of translocation was similar for wild-type GAS strains 87-282, a highly encapsulated M-type 18 strain, and for DLS003, a poorly encapsulated M-type 3 strain. Translocation of wild-type GAS was reduced by 78% at 1 hour in experiments in which the keratinocyte monolayers were pretreated with monoclonal antibody IM7.8.1 to block interaction of the GAS capsule with CD44 . […]

Bounds are passed on as bounds.

For the substance hyaluronic acid, the “reduction in bacterial attachment” value with GAS (added up to 45 minutes after adding GAS to the keratinocytes, P<0.03) is above 90%. Besides, in the assay with GAS (addition delayed for 2 hours, P<0.03), the “reduction of GAS attachment” value is on record as 70-80%. The figures for the “blocking of GAS binding” value with GAS (concentrations from 4 mg/ml to 0.25 mg/ml) and in the assay on GAS (concentrations from 4 mg/ml to 0.5 mg/ml) were “greater than 70%” and “greater than 80%”, respectively. Besides, the “inhibition of GAS attachment to PAM2.12” value in the assay with GAS (hyaluronic acid 1 mg/ml added with GAS, P<0.03) is on record as above 95%. Besides, the “blocking of translocating GAS” value in assay [1] (1 hour after inoculation) and in assay [1] (2 hours after inoculation) was 100% throughout.

(Values after patent US20030013643A1, “Prevention and treatment of streptococcal and staphylococcal infection” (priority 2000, published 2003).)
